The values below come from PubChem BioAssay AID1508591.

The conditions of this data set: rat; liver microsomes; pH 7.4; 15.0 min; 1.0 µM.

The molecule `COc1ccc(NC2=C(c3ccc(C(F)(F)F)cc3)C(=O)c3ccccc32)cc1` showed a half-life of 7.57 min.

Consider `CCOC(=O)C1CCN(C(=O)C2(NC(=O)Nc3ccc(F)cc3F)CCCCC2)CC1`, for which the half-life was determined as 2.7 min.

The molecule `O=C(Nc1nc(-c2ccccc2)cs1)c1ccncc1NS(=O)(=O)c1ccc(-c2ccccc2)cc1` registered a half-life of 2 min.

`COc1cccc(CNC(=O)c2c(OC)cc(=O)n3c2CCN(C(=O)c2ccc(C)cc2C)CC3)c1` showed a half-life of 5.9 min.

`Cc1cccc2c1NC(=O)/C2=C/c1cc(Cl)c(O)c(Cl)c1`: the half-life amounted to 26 min.

Turning to `Clc1ccccc1-c1nc(NCc2ccc(-c3cccnc3)cc2)c2ccccc2n1`, the half-life was 6.99 min.

As for `C1CCc2nc3c(nc2C1)CCCC3`, the half-life is more than 30 min.

`CCOC(=O)c1ccc(NC(=O)CSc2nc3c(cc2C#N)N2CCC3CC2)cc1` displayed a half-life of 4.26 min.

In turn, `OCc1ccc(-c2nn(Cc3ccccc3)c3ccccc23)o1` came in with a half-life of 5.17 min.

Consider `CN1CCN(c2ccc(Nc3nn4c(=O)c5ccccc5nc4s3)cc2)CC1`, for which the half-life came out at 15.2 min.

Take `O=C(Nc1nc(-c2ccccc2)cs1)c1ccncc1NS(=O)(=O)c1cccc2cccnc12`: the half-life worked out at 7.4 min.

The molecule `Cc1cccc(-n2cnc3cc(C(=O)N4CCCCC4)ccc32)c1` registered a half-life of 5.85 min.

`CCN(CC)C(=O)c1coc(COc2ccc3c(c2)C(c2cccc(F)c2)N(C(=O)C(C)C)CC3)n1` (stereo unspecified): the half-life came to 1.28 min.

As to `COC(=O)c1ccnc(NC(=S)N2CCN(c3cccc(C(F)(F)F)c3)CC2)c1`, the half-life is more than 30 min.

In turn, `Cc1ccccc1NC(=O)Nc1cccs1` yielded a half-life of more than 30 min.

Regarding `Cc1cc(-c2nnc3n2CCCCC3)c(C)n1-c1ccc(Cl)c(Cl)c1`, the half-life was found to be 1.9 min.

Molecule `Nc1nc2c(s1)C(c1cccc(Cl)c1Cl)CC(=O)N2` (stereo unspecified) had a half-life of 26 min.

The molecule `COc1ccc(-c2nc3ccccc3c(=O)n2Cc2ccco2)cc1COc1ccc(NC(C)=O)cc1` yielded a half-life of 2.17 min.

In turn, `CC(C)c1ccccc1-c1ncc(F)c(NCc2ccc(-n3ccnn3)cc2)n1` gave a half-life of 4.4 min.

In the case of `CN(Cc1cccs1)c1ncnc2ccc(-c3ccc4c(c3)OCO4)cc12`, the half-life turned out to be 1.44 min. Against the preceding molecule, the half-life is about 3.1-fold lower.

Regarding `CCOc1ccc(CNc2ccc3c(c2)ncn3C)cc1`, the half-life was determined as 21 min.

As for `OCCn1cc(-c2cnc3nnn(Cc4ccc5ncccc5c4)c3n2)cn1`, the half-life was more than 30 min.

In turn, `O=C(Nc1ccc(S(=O)(=O)Nc2nc(-c3ccccc3)cs2)cc1)c1ccc2ccccc2c1` showed a half-life of more than 30 min.

As to `O=C(Nc1ccc(C(=O)N2CCCC2)cc1)c1ccccc1F`, the half-life is more than 30 min.

`Cc1cc(-c2nc(Nc3ccc(F)c(F)c3)c3ccccc3n2)cc(C)n1` returned a half-life of more than 30 min.

Molecule `COCCn1ccc2c(C3=CCOCC3)nc(-c3cccc(NC(C)=O)c3)cc21` returned a half-life of more than 30 min.

Regarding `Cc1ccc(-c2cc(C(=O)Nc3ccc(S(N)(=O)=O)cc3)c3ccccc3n2)cc1C`, the half-life is more than 30 min.

In the case of `COc1ccc(NC(=O)c2[nH]c(C)c(C(C)=O)c2C)cc1S(=O)(=O)Nc1ccc(C#N)cc1`, the half-life was more than 30 min.

In the case of `Cc1cc(-c2nc(Nc3ccc(F)c(F)c3)c3ccccc3n2)ccn1`, the half-life turned out to be 22 min.

`Cc1noc(C)c1-c1ccc2ncnc(NCc3cccc(Cl)c3)c2c1` displayed a half-life of 5.19 min.

On to `CN1CCN(Cc2ccc(-c3ccc(C(C)(C)C#N)cc3)nc2)CC1`, for which the half-life worked out at 24.6 min.

`CCCCCCCc1c(C)nc(N2CCOCC2)[nH]c1=O` came in with a half-life of 3.5 min.

`O=C(Nc1ncccc1O)c1ccc(S(=O)(=O)Nc2ccccc2)cc1` had a half-life of 2.58 min. The half-life values of the last two molecules are within 1.5-fold of each other.

In turn, `COc1cccc(CC(=O)Nc2nc(-c3ccc4c(c3)CCN4C(=O)c3ccccc3C)c(C)s2)c1` came in with a half-life of 19 min.

In turn, `O=[S+]([O-])(Nc1ccccc1)c1ccc(NCc2ccc(Cl)cc2O)cc1` registered a half-life of 1.8 min.

Consider `CCN(CC)c1ccc(Nc2nc(Cl)ncc2Br)cc1`, for which the half-life amounted to 6.24 min.

Consider `CC(Cc1ccc(O)cc1)NCC(O)c1cc(O)cc(O)c1` (stereo unspecified), for which the half-life was more than 30 min.

Molecule `N#Cc1ccccc1-c1csc(N2CCC(C(N)=O)CC2)n1` showed a half-life of 3.76 min.

Take `Cc1cc(CNC(=O)c2ccc3c(c2)n(CC2CC2)c(=O)n3C2CCCCC2)on1`: the half-life stood at 12.4 min.

On to `CC(=O)c1c(C)[nH]c(C(=O)N(C)C)c1C`, for which the half-life was more than 30 min.

`COc1ccc(C2=Nn3c(nnc3-c3ccncc3)SC2)cc1` returned a half-life of 1.9 min.

As to `COc1cccc(NCCC2(c3ccccc3)CC(C)(C)OC(C)(C)C2)c1`, the half-life turned out to be 1.6 min.

Molecule `O=C(Nc1ncc(Cc2ccc(C(F)(F)F)cc2)s1)c1cccc(-c2ccccc2)c1` came in with a half-life of more than 30 min.

The molecule `CC[C@@]1(O)C(=O)OCc2c1cc1n(c2=O)Cc2c-1nc1cc(F)c(C)c3c1c2[C@@H](N)CC3` returned a half-life of more than 30 min.

The molecule `CCOc1ccc(CCNC(=O)c2cc3ccccc3o2)cc1OCC` gave a half-life of 1.6 min.

Regarding `CCCCOc1ccc(CNC(=O)c2cc3n(n2)CCCN(Cc2ccc(C)cc2)C3=O)cc1`, the half-life stood at 4.33 min.

Molecule `COc1cc(NS(=O)(=O)c2ccc(C)cc2)c(C(=O)Nc2nc(-c3ccccc3)cs2)cc1OC` came in with a half-life of 9 min.

Take `Fc1ccc(CN2CCOC[C@H]2c2ncc(-c3ccc(Cl)s3)[nH]2)cc1`: the half-life came out at 3.47 min.

The molecule `O=[S+]([O-])(Nc1cccc2cccnc12)c1ccc(NCc2ccc(Cl)cc2O)cc1` yielded a half-life of 2.4 min.

`Cc1cc(C)c(CNC(=O)c2nc(-c3ccc(CN(C)C)cc3)cc3c2ccn3C(C)C)c(=O)[nH]1` showed a half-life of more than 30 min.

For the molecule `Cc1[nH]c2ccccc2c1CN1CCN(c2ccccn2)CC1`, the half-life was found to be 1.7 min.

As to `Nc1c(-c2ccccc2)cc[nH]c1=O`, the half-life was more than 30 min.

Take `CCn1c(=O)cc(OCC(=O)N2CCN(c3cccc(Cl)c3)CC2)c2ccccc21`: the half-life turned out to be 2.66 min.

As for `COc1ccc(-c2nc(CS(=O)CC(=O)N3CCC4(CC3)OCCO4)c(C)o2)cc1` (stereo unspecified), the half-life was more than 30 min.

`COc1ccc(CN2CCNc3cc(Nc4ccccc4)ncc3C2)cn1` gave a half-life of 10 min.

The molecule `Cc1c(C)n(Cc2ccc(-c3ccccc3C(=O)O)cc2)c2ccc(C(=O)N[C@@H](C)c3ccc([N+](=O)[O-])cc3)cc12` displayed a half-life of more than 30 min.

Regarding `CSc1ccc(-c2cnc(N3CCC(C(N)=O)CC3)s2)cc1`, the half-life is 1.53 min.

`O=[N+]([O-])c1cccc(CSc2nc3ncc(Br)cc3[nH]2)c1` gave a half-life of 6.6 min.

As to `Cc1ccccc1C(C(=O)NC1CCCCC1)N(C(=O)Cn1ccnc1C)c1cccc(F)c1` (stereo unspecified), the half-life was 5.62 min.

On to `CC(C)(C)c1ccc(SC2=NS(=O)(=O)c3ccccc32)cc1`, for which the half-life was 1.74 min.

Molecule `Cn1cnc2c(F)c(Nc3ccc(Br)cc3Cl)c(C(=O)NOCCO)cc21` showed a half-life of more than 30 min.

Consider `CC(C)CN(CC(=O)N(CCCN1CCCC1=O)CC(N)=O)C(=O)CNCCc1ccccc1F`, for which the half-life was more than 30 min.

For the molecule `Cc1nn2c(c1-c1ccccc1-c1ccccc1)N(CCC(C)C)CCC2`, the half-life stood at 1.31 min.

Molecule `O=S(=O)(Nc1nc2n(n1)C(c1ccccc1)C=C(c1ccc(Cl)cc1)N2)c1ccccc1` (stereo unspecified) had a half-life of more than 30 min.

In the case of `N#Cc1ccccc1S(=O)(=O)Nc1cnccc1C(=O)Nc1nc(-c2ccccc2)cs1`, the half-life was 7 min.

`Cc1noc(/C=C/c2ccccc2F)c1S(=O)(=O)N1CCC(C(=O)Nc2ccc(C#N)cc2)CC1` came in with a half-life of 24.7 min.

For orientation: half-life means the time in which the quantity being followed falls by half.
